In the experiment the test system is 14-3-3 protein binding to IRS-1. Briefly: Amount of 14-3-3 protein binding to IRS-1 in HepG2 hepatoma cells overexpressing IRS-1. The class given is cell-based. Particulars: IRS-1 overexpressed by adenovirus expression system.

The record followed here is patent US6498139B1, “Remedies for diseases caused by insulin resistance” (Daiichi Pharmaceutical Co., Ltd., priority 1997, dated 2002).

In the case of `C=C1[C@@H](O)[C@@H]2O[C@]3(CC[C@H](/C=C/[C@@H](C)[C@@H]4CC(C)=C[C@@]5(O[C@H](C[C@@](C)(O)C(=O)O)CC[C@H]5O)O4)O3)CC[C@H]2O[C@@H]1[C@@H](O)C[C@H](C)[C@H]1O[C@@]2(CCCCO2)CC[C@H]1C` [okadaic acid], the “amount of 14-3-3 protein binding to IRS-1” value is recorded as “significantly increased”.

In the case of insulin, the “amount of 14-3-3 protein binding to IRS-1” value is given as “not changed”.
